The values below come from ChEMBL document CHEMBL3046432, “Synthesis of new series of pyrimido[4,5-b][1,4] benzothiazines as 15-lipoxygenase inhibitors and study of their inhibitory mechanism” (Med Chem Res, 2013).

For experiment [1], the target named is T1, Seed linoleate 13S-lipoxygenase-1 (Glycine max, UniProt P08170).
T1 sequence (P08170 whole entry): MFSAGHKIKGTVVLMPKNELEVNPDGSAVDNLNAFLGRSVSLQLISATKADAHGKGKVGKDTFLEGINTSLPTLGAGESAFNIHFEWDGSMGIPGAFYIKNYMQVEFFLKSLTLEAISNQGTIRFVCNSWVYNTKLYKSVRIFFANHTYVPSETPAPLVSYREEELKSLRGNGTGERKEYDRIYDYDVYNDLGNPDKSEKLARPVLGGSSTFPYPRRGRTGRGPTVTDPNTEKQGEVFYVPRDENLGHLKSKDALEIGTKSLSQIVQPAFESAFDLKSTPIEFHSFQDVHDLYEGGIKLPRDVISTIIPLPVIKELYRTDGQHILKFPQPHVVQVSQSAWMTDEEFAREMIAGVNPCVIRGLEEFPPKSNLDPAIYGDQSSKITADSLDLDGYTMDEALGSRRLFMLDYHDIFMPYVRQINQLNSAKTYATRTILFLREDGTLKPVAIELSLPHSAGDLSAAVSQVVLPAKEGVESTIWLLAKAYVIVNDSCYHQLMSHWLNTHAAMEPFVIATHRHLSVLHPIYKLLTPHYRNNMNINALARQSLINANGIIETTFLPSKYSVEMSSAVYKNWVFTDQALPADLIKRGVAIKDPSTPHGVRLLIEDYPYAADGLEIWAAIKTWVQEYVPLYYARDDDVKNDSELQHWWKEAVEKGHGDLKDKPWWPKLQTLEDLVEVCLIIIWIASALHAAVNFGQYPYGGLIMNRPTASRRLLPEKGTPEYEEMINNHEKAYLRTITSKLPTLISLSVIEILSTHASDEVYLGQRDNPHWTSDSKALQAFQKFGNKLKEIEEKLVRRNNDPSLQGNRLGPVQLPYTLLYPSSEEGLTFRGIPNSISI
Description: Inhibition of Glycine max (soybean) 15-lipoxygenase activity assessed as decrease in peroxide formation using linoleic acid as substrate preincubated with enzyme for 5 min prior to substrate addition measured after 7 min by MBTH-DMAB method.

In experiment [2] the test system is Radical scavenging activity. Nature of the experiment: Antioxidant activity assessed as inhibition of DPPH radical […]. Type of experiment: functional.
The target of experiment [3] is T1, Seed linoleate 13S-lipoxygenase-1. Nature of the experiment: Inhibition of Glycine max (soybean) 15-lipoxygenase activity using linoleic acid as substrate by MBTH-DMAB method.

Each structure is given as a SMILES string.

As to `CCCc1nc(N2CCN(C)CC2)nc2c1Nc1ccccc1S2`, the Ki in experiment [1] is 0.192 µM. Also, the half-inhibitory concentration (IC50) in experiment [2] came to 17.3 µM; in experiment [3], 8.9 µM.
In the case of `CCCc1nc(N2CCCC2)nc2c1Nc1ccccc1S2`, in experiment [1], the Ki was 1.84 µM. Moreover, the IC50 in experiment [2] is 311 µM; in experiment [3], 611 µM.
As to `CCCc1nc(N2CCN(c3ccccc3)CC2)nc2c1Nc1ccccc1S2`, the Ki in experiment [1] amounted to 1.16 µM. The IC50 in experiment [2] is 357 µM; in experiment [3] it was 404 µM.
Consider `Cc1nc(N2CCN(C)CC2)nc2c1Nc1ccccc1S2`, for which the Ki in experiment [1] is 0.198 µM. Also, the IC50 in experiment [2] is 69.6 µM; in experiment [3], 19.5 µM.
For `CCCc1nc(N2CCCCC2)nc2c1Nc1ccccc1S2`, the Ki in experiment [1] stood at 0.662 µM. The IC50 in experiment [2] stood at 621 µM; in experiment [3], 121 µM.
Take `CCCc1nc(N2CCOCC2)nc2c1Nc1ccccc1S2`: the Ki in experiment [1] was found to be 2.01 µM. Further, the IC50 in experiment [2] worked out at 669 µM; in experiment [3], 726 µM.
Take `CCCc1nc(N2CCC(C)CC2)nc2c1Nc1ccccc1S2`: in experiment [1], the inhibition constant (Ki) was determined as 0.486 µM. The concentration for half-maximal inhibition (IC50) was 599 µM in experiment [2] and 86.3 µM in experiment [3].
